Results reported in patent publication US12162878B2 (HINOVA PHARMACEUTICALS INC., priority 2018, dated 2024).

Tested on: CWR22RV1 cells
Assay: Inhibition of proliferation of CWR22RV1 cells (CCK-8)
Format: cell-based, human
Settings: Homo sapiens, CWR22Rv1, 144 h, 6 days
Summary of the method: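 Cells seeded at 1500/well, cultured overnight, then exposed to compounds in 3-fold dilutions (9 concentrations from 10 μM top final, 0.1% DMSO) for 6 days at 37 °C. Viability read by CCK-8 absorbance at 450 nm after 2.5 h; IC50 from dose-response inhibition fit.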

Row | Structure (SMILES) | IC50 [nM]
1 | CCS(=O)(=O)Nc1ccc(N2CCC3(CC2)COC3)c(-c2cn(C)c(=O)c3[nH]ccc23)c1 [Compound 194, N-(3-(6-methyl-7-oxo-6,7-dihydro-1H-pyrrolo[2,3-c]pyridin-4-yl)-4-(2-oxa-7-aza-spiro[3.5]nonan-7-yl)phenyl)ethanesulfonamide] | 46
2 | Cn1cc(-c2cc(NS(C)(=O)=O)ccc2N2CCC3(CC2)COC3)c2cc[nH]c2c1=O [Compound 195, N-(3-(6-methyl-7-oxo-6,7-dihydro-1H-pyrrolo[2,3-c]pyridin-4-yl)-4-(2-oxa-7-aza-spiro[3.5]nonan-7-yl)phenyl)methanesulfonamide] | 160
3 | [2H]C([2H])([2H])n1cc(-c2cc(NS(=O)(=O)CC)ccc2N2CCC3(CC2)COC3)c2cc[nH]c2c1=O [Compound 196, N-(3-(6-trideuteromethyl-7-oxo-6,7-dihydro-1H-pyrrolo[2,3-c]pyridin-4-yl)-4-(2-oxa-7-aza-spiro[3.5]nonan-7-yl)phenyl)ethanesulfonamide] | 56
4 | [2H]C([2H])([2H])n1cc(-c2cc(S(=O)(=O)NCC)ccc2N2CCC3(CC2)CC3)c2cc[nH]c2c1=O [Compound 197, N-ethyl-3-(6-trideuteromethyl-7-oxo-6,7-dihydro-1H-pyrrolo [2,3-c]pyridin-4-yl)-4-(6-aza-spiro[2.5]octan-6-yl)benzenesulfonamide] | 5
5 | [2H]C([2H])([2H])n1cc(-c2cc(S(N)(=O)=O)cnc2N2CCC3(CC3)C2)c2cc[nH]c2c1=O [Compound 198, 5-(6-trideuteromethyl-7-oxo-6,7-dihydro-1H-pyrrolo[2,3-c]pyridin-4-yl)-6-(5-aza-spiro[2.4]heptan-5-yl)pyridin-3-sulfonamide] | 10
6 | [2H]C([2H])([2H])n1cc(-c2cc(S(N)(=O)=O)cnc2N2CCC3(CC2)CC3)c2cc[nH]c2c1=O [Compound 199, 5-(6-trideuteromethyl-7-oxo-6,7-dihydro-1H-pyrrolo[2,3-c]pyridin-4-yl)-6-(6-aza-spiro[2.5]octan-6-yl)pyridin-3-sulfonamide] | 2
7 | [2H]C([2H])([2H])n1cc(-c2cc(S(N)(=O)=O)ccc2N2CCC3(CC3)C2)c2cc[nH]c2c1=O [Compound 200, 3-(6-trideuteromethyl-7-oxo-6,7-dihydro-1H-pyrrolo[2,3-c]pyridin-4-yl)-4-(5-aza-spiro[2.4]heptan-5-yl)benzensulfonamide] | 6.7
8 | [2H]C([2H])([2H])n1cc(-c2cc(S(N)(=O)=O)ccc2N2CCC3(CC2)CC3)c2cc[nH]c2c1=O [Compound 201, 3-(6-trideuteromethyl-7-oxo-6,7-dihydro-1H-pyrrolo[2,3-c]pyridin-4-yl)-4-(6-azaspiro[2.5]octan-6-yl)benzenesulfonamide] | 1.4
9 | [2H]C([2H])([2H])n1cc(-c2cc(S(=O)(=O)N(C)C)ccc2N2CCC3(CC2)CC3)c2cc[nH]c2c1=O [Compound 203, N,N-dimethyl-3-(6-trideuteromethyl-7-oxo-6,7-dihydro-1H-pyrrolo[2,3-c]pyridin-4-yl)-4-(6-aza-spiro[2.5]octan-6-yl)benzenesulfonamide] | 0.2
10 | [2H]C([2H])([2H])n1cc(-c2cc(S(=O)(=O)NCCO)ccc2N2CCC3(CC2)CC3)c2cc[nH]c2c1=O [Compound 205, N-(2-hydroxyethyl)-3-(6-trideuteromethyl-7-oxo-6,7-dihydro-1H-pyrrolo[2,3-c]pyridin-4-yl)-4-(6-aza-spiro[2.5]octan-6-yl)benzenesulfonamide] | 4.8
11 | Cn1cc(-c2cc(C(=O)O)ccc2N2CCC3(CC2)CC3)c2cc[nH]c2c1=O [Compound 220, 3-(6-methyl-7-oxo-6,7-dihydro-1H-pyrrolo[2,3-c]pyridin-4-yl)-4-(6-aza-spiro[2.5]octan-6-yl)benzoic acid] | 530
12 | Cn1cc(-c2cc(C(N)=O)ccc2N2CCC3(CC2)CC3)c2cc[nH]c2c1=O [Compound 221, 3-(6-methyl-7-oxo-6,7-dihydro-1H-pyrrolo[2,3-c]pyridin-4-yl)-4-(6-aza-spiro[2.5]octan-6-yl)benzeneformamide] | 130
13 | COC(=O)c1ccc(N2CCC3(CC2)CC3)c(-c2cn(C)c(=O)c3[nH]ccc23)c1 [Compound 222, methyl 3-(6-methyl-7-oxo-6,7-dihydro-1H-pyrrolo[2,3-c]pyridin-4-yl)-4-(6-aza-spiro[2.5]octan-6-yl)benzoate] | 350
14 | CC(=O)c1ccc(N2CCC3(CC2)CC3)c(-c2cn(C)c(=O)c3[nH]ccc23)c1 [Compound 223, 4-(5-acetyl-2-(6-aza-spiro[2.5]octan-6-yl)phenyl)-6-methyl-1H-pyrrolo[2,3-c]pyridin-7(6H)-one] | 110
15 | Cn1cc(-c2cc(C(=O)N3CCS(=O)(=O)CC3)ccc2N2CCC3(CC2)CC3)c2cc[nH]c2c1=O [Compound 224, 4-(5-(1,1-dioxothiomorpholine-4-carbonyl)-2-(6-aza-spiro[2.5]octan-6-yl)phenyl)-6-methyl-1H-pyrrolo[2,3-c]pyridin-7(6H)-one] | 62
16 | Cn1cc(-c2cc(C(C)(C)O)ccc2N2CCC3(CC2)CC3)c2cc[nH]c2c1=O [Compound 225, 4-(5-(2-hydroxypropan-2-yl)-2-(6-aza-spiro[2.5]octan-6-yl)phenyl)-6-methyl-1H-pyrrolo[2,3-c]pyridin-7(6H)-one] | 130
17 | CC(=O)Nc1ccc(N2CCC3(CC2)COC3)c(-c2cn(C)c(=O)c3[nH]ccc23)c1 [Compound 230] | 250
18 | [2H]C([2H])([2H])n1cc(-c2cc(S(=O)(=O)CC)ccc2N2CCC3(CC2)CC3)c2cc[nH]c2c1=O [Compound 232, 4-(5-(ethylsulfonyl)-2-(6-aza-spiro[2.5]octan-6-yl)phenyl)-6-trideuteromethyl-1H-pyrrolo[2,3-c]pyridin-7(6H)-one] | 0.6
19 | [2H]C([2H])([2H])n1cc(-c2cc(S(=O)(=O)C(C)C)ccc2N2CCC3(CC2)CC3(F)F)c2cc[nH]c2c1=O [Compound 233, 4-(2-(1,1-difluoro-6-aza-spiro[2.5]octan-6-yl)-5-(isopropylsulfonyl)phenyl)-6-trideuteromethyl-1H-pyrrolo[2,3-c]pyridin-7(6H)-one] | 1.3
20 | [2H]C([2H])([2H])n1cc(-c2cc(S(=O)(=O)C(C)C)ccc2N2CCC3(CC2)CC3)c2cc[nH]c2c1=O [Compound 234, 4-(5-(isopropylsulfonyl)-2-(6-aza-spiro[2.5]octan-6-yl)phenyl)-6-trideuteromethyl-1H-pyrrolo[2,3-c]pyridin-7(6H)-one] | 0.9
21 | [2H]C([2H])([2H])n1cc(-c2cc(S(=O)(=O)CC(=O)O)ccc2N2CCC3(CC2)CC3)c2cc[nH]c2c1=O [Compound 235, 2-((3-(6-trideuteromethyl-7-oxo-6,7-dihydro-1H-pyrrolo[2,3-c]pyridin-4-yl)-4-(6-aza-spiro[2.5]octan-6-yl)phenyl)sulfonyl)acetic acid] | 1.7
22 | [2H]C([2H])([2H])n1cc(-c2cc(S(N)(=O)=O)c(F)cc2N2CCC3(CC2)CC3)c2cc[nH]c2c1=O [Compound 236, 2-fluoro-5-(6-trideuteromethyl-7-oxo-6,7-dihydro-1H-pyrrolo [2,3-c]pyridin-4-yl)-4-(6-aza-spiro[2.5]octan-6-yl)benzenesulfonamide] | 3.2
23 | [2H]C([2H])([2H])n1cc(-c2cc(S(C)(=O)=O)c(N3CCC4(CC3)CC4)cc2F)c2cc[nH]c2c1=O [Compound 237, 4-(2-fluoro-5-(methanesulfonyl)-4-(6-aza-spiro[2.5]octan-6-yl)phenyl)-6-trideuteromethyl-1H-pyrrolo[2,3-c]pyridin-7(6H)-one] | 4.2
24 | [2H]C([2H])([2H])n1cc(-c2cc(S(C)(=O)=O)c(F)cc2N2CCC3(CC2)CC3)c2cc[nH]c2c1=O [Compound 238, 4-(4-fluoro-5-(methanesulfonyl)-2-(6-aza-spiro[2.5]octan-6-yl)phenyl)-6-trideuteromethyl-1H-pyrrolo[2,3-c]pyridin-7(6H)-one] | 8
25 | [2H]C([2H])([2H])n1cc(-c2cc(S(=O)(=O)N3CCCC3C(=O)O)ccc2N2CCC3(CC2)CC3(F)F)c2cc[nH]c2c1=O (stereo not drawn) [Compound 244, 1-((4-(1,1-difluoro-6-aza-spiro[2.5]octan-6-yl)-3-(6-trideuteromethyl-7-oxo-6,7-dihydro-1H-pyrrolo[2,3-c]pyridin-4-yl)phenyl)sulfonyl)pyrrolidin-2-carboxylic acid] | 81
26 | Cn1cc(-c2cc(N)ccc2N2CCC3(CC2)CC3)c2cc[nH]c2c1=O [Compound 245, 4-(5-amino-2-(6-aza-spiro[2.5]octan-6-yl)phenyl)-6-methyl-1H-pyrrolo[2,3-c]pyridin-7(6H)-one] | 230
27 | Cn1cc(-c2cc(NS(C)(=O)=O)ccc2N2CCC3(CC3)C2)c2cc[nH]c2c1=O [Compound 246, N-(3-(6-methyl-7-oxo-6,7-dihydro-1H-pyrrolo[2,3-c]pyridin-4-yl)-4-(5-aza-spiro[2.4]heptan-5-yl)phenyl)methanesulfonamide] | 30
28 | Cn1cc(-c2cc(NC(=O)CCC(=O)O)ccc2N2CCC3(CC2)CC3)c2cc[nH]c2c1=O [Compound 247, 4-((3-(6-methyl-7-oxo-6,7-dihydro-1H-pyrrolo[2,3-c]pyridin-4-yl)-4-(6-aza-spiro[2.5]octan-6-yl)phenyl)amino)-4-oxobutyric acid] | 670
29 | Cn1cc(-c2cc(S(C)(=O)=O)ccc2N2CCCC2C(=O)O)c2cc[nH]c2c1=O (stereo not drawn) [Compound 248, 1-(2-(6-methyl-7-oxo-6,7-dihydro-1H-pyrrolo[2,3-c]pyridin-4-yl)-4-(methanesulfonyl)phenyl)pyrrolidin-2-carboxylic acid] | 7000
30 | Cn1cc(-c2cc(S(C)(=O)=O)ccc2N2CCCC2CCl)c2cc[nH]c2c1=O (stereo not drawn) [Compound 249, 4-(2-(2-(chloromethyl)pyrrolidin-1-yl)-5-(methanesulfonyl)phenyl)-6-methyl-1H-pyrrolo[2,3-c]pyridin-7(6H)-one] | 130
